Experimental data reported in patent publication US7855213B2 (AstraZeneca AB, priority 2006, dated 2010).
pIC50: −log10 of the molar value. Where a name gives a salt, the structure may show the parent alone.

Target: T1, human β-Secretase (Homo sapiens, UniProt P56817)
T1 construct: The soluble part of the human β-Secretase (AA 1-AA 460) was cloned; made in house
Test: TR-FRET assay
Type: biochemical

T1 sequence (P56817 22-460): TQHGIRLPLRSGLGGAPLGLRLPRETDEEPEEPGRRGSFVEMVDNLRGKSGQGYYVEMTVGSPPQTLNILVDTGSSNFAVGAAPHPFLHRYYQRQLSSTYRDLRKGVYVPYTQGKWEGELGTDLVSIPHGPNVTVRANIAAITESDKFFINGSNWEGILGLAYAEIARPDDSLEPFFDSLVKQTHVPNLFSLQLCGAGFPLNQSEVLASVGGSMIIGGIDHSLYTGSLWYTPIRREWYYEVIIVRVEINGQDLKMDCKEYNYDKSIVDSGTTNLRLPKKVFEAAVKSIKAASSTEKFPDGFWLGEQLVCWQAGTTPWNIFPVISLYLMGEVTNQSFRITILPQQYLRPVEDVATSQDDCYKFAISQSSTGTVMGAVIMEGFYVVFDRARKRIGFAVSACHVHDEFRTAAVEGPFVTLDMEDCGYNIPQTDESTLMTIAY

| Compound | pIC50 |
| --- | --- |
| COc1cc(OS(C)(=O)=O)cc(-c2cccc(C3(c4ccc(OS(C)(=O)=O)cc4)N=C(N)c4ccccc43)c2)c1 (stereo not shown) [Example 41, Methanesulfonic acid 4-[3-amino-1-(5′-methane-sulfonyloxy-3′-methoxy-biphenyl-3-yl)-1H-isoindol-1-yl]-phenyl ester trifluoroacetate] | 6.24 |
| NC1=NC(c2ccncc2)(c2cccc(-c3cccnc3F)c2)c2ccccc21 (stereo not shown) [Example 42, 3-[3-(2-Fluoro-pyridin-3-yl)-phenyl]-3-pyridin-4-yl-3H-isoindol-1-ylamine trifluoroacetate] | 6.96 |
| COc1cccc(-c2cccc(C3(c4ccncc4)N=C(N)c4ccccc43)c2)c1 (stereo not shown) [Example 47, 3-(3′-Methoxy-biphenyl-3-yl)-3-pyridin-4-yl-3H-isoindol-1-ylamine trifluoroacetate] | 7.26 |
| COc1ccc(C2(c3cccc(-c4ccsc4C=O)c3)N=C(N)c3ccccc32)cc1 (stereo not shown) [Example 48, 3-{3-[3-Amino-1-(4-methoxyphenyl)-1H-isoindol-1-yl]phenyl}thiophene-2-carbaldehyde 1.5 acetate] | 6.52 |
| COc1ccc(C2(c3cccc(-c4ccc(C)o4)c3)N=C(N)c3ccccc32)cc1 (stereo not shown) [Example 54, 1-(4-Methoxyphenyl)-1-[3-(5-methyl-2-furyl)phenyl]-1H-isoindol-3-amine 0.5 acetate] | 6.00 |
| COc1ccc(C2(c3cccc(-c4ccccc4C(N)=O)c3)N=C(N)c3ccccc32)cc1 (stereo not shown) [Example 55, 3′-[3-Amino-1-(4-methoxyphenyl)-1H-isoindol-1-yl]biphenyl-2-carboxamide 0.5 acetate] | 5.70 |
| NC1=NC(c2ccc(OC(F)(F)F)cc2)(c2cccc(-c3cncc(F)c3)c2)c2ccccc21 (stereo not shown) [Example 56, 1-[3-(5-Fluoropyridin-3-yl)phenyl]-1-[4-(trifluoromethoxy)phenyl]-1H-isoindol-3-amine 0.75 acetate] | 6.70 |
| NC1=NC(c2ccc(C(F)(F)F)cc2)(c2cccc(-c3cncc(F)c3)c2)c2ccccc21 (stereo not shown) [Example 59, 1-[3-(5-Fluoropyridin-3-yl)phenyl]-1-[4-(trifluoromethyl)phenyl]-1H-isoindol-3-amine 0.25 acetate] | 6.20 |
| NC1=NC(c2ccncc2)(c2cccc(-c3ccsc3C=O)c2)c2ccccc21 (stereo not shown) [Example 61, 3-[3-(3-Amino-1-pyridin-4-yl-1H-isoindol-1-yl)phenyl]thiophene-2-carbaldehyde] | 5.70 |
| CC(C)Cn1cc(-c2cccc(C3(c4ccncc4)N=C(N)c4ccccc43)c2)cn1 (stereo not shown) [Example 62, 1-[3-(1-Isobutyl-1H-pyrazol-4-yl)phenyl]-1-pyridin-4-yl-1H-isoindol-3-amine 0.25] | < 5.00 |
| Cc1ccc(-c2cccc(C3(c4ccncc4)N=C(N)c4ccccc43)c2)o1 (stereo not shown) [Example 63, 1-[3-(5-Methyl-2-furyl)phenyl]-1-pyridin-4-yl-1H-isoindol-3-amine acetate] | 5.96 |
| NC(=O)c1ccccc1-c1cccc(C2(c3ccncc3)N=C(N)c3ccccc32)c1 (stereo not shown) [Example 64, 3′-(3-Amino-1-pyridin-4-yl-1H-isoindol-1-yl)biphenyl-2-carboxamide 0.25 acetate] | < 5.51 |
| N#Cc1ccc(C2(c3cccc(-c4cccnc4F)c3)N=C(N)c3ccccc32)cc1 (stereo not shown) [Example 65, 4-{3-Amino-1-[3-(2-fluoropyridin-3-yl)phenyl]-1H-isoindol-1-yl}benzonitrile] | 6.40 |
| NC1=NC(c2ccc(C(F)(F)F)cc2)(c2cccc(-c3cccnc3F)c2)c2ccccc21 (stereo not shown) [Example 66, 1-[3-(2-Fluoropyridin-3-yl)phenyl]-1-[4-(trifluoromethyl)phenyl]-1H-isoindol-3-amine] | 6.28 |
| NC1=NC(c2ccncc2)(c2ccc(F)c(-c3cncc(F)c3)c2)c2ccccc21 (stereo not shown) [Example 69, 1-[4-Fluoro-3-(5-fluoropyridin-3-yl)phenyl]-1-pyridin-4-yl-1H-isoindol-3-amine 0.75 acetate] | 7.00 |
| COc1ccc(C2(c3cccc(-c4cccnc4)c3)N=C(N)c3ccc(F)cc32)cc1 (stereo not shown) [Example 79, 6-Fluoro-1-(4-methoxyphenyl)-1-(3-pyridin-3-ylphenyl)-1H-isoindol-3-amine] | 7.27 |
| COc1ccc(C2(c3cccc(-c4cccc(OC)c4)c3)N=C(N)c3ccc(F)cc32)cc1 (stereo not shown) [Example 80, 6-Fluoro-1-(3′-methoxybiphenyl-3-yl)-1-(4-methoxyphenyl)-1H-isoindol-3-amine] | 7.08 |
| COc1ccc(C2(c3cccc(-c4cncc(OC)c4)c3)N=C(N)c3ccc(F)cc32)cc1 (stereo not shown) [Example 81, 6-Fluoro-1-(4-methoxyphenyl)-1-[3-(5-methoxypyridin-3-yl)phenyl]-1H-isoindol-3-amine] | 7.59 |
| NC1=NC(c2ccncc2)(c2cccc(-c3cccnc3)c2)c2cc(F)ccc21 (stereo not shown) [Example 83, 6-Fluoro-1-pyridin-4-yl-1-(3-pyridin-3-ylphenyl)-1H-isoindol-3-amine] | 7.12 |
| COc1cncc(-c2cccc(C3(c4ccncc4)N=C(N)c4ccc(F)cc43)c2)c1 (stereo not shown) [Example 85, 6-Fluoro-1-[3-(5-methoxypyridin-3-yl)phenyl]-1-pyridin-4-yl-1H-isoindol-3-amine] | 7.35 |
| NC1=NC(c2ccncc2)(c2cccc(-c3cccnc3F)c2)c2cc(F)ccc21 (stereo not shown) [Example 86, 6-Fluoro-1-[3-(2-fluoropyridin-3-yl)phenyl]-1-pyridin-4-yl-1H-isoindol-3-amine] | 7.33 |
| COc1ccc(C2(c3cccc(-c4cc(Cl)cc(Cl)c4)c3)N=C(N)c3ccccc32)cc1 (stereo not shown) [Example 88, 1-(3′,5′-Dichlorobiphenyl-3-yl)-1-(4-methoxyphenyl)-1H-isoindol-3-amine acetate] | 7.19 |
| COc1ccc(C#N)c(-c2cccc(C3(C4CC4)N=C(N)c4ccccc43)c2)c1 (stereo not shown) [Example 91, 3′-(3-Amino-1-cyclopropyl-1H-isoindol-1-yl)-5-methoxybiphenyl-2-carbonitrile acetate] | 6.38 |

The remaining lines, values ahead:

| pIC50 | Compound |
| --- | --- |
| 6.67 | NC1=NC(c2ccncc2)(c2cccc(-c3cccnc3)c2)c2ccccc21 (stereo not shown) [Example 44, 3-Pyridin-4-yl-3-(3-pyridin-3-yl-phenyl)-3H-isoindol-1-ylamine trifluoroacetate] |
| 6.30 | NC1=NC(c2ccncc2)(c2cccc(-c3cncnc3)c2)c2ccccc21 (stereo not shown) [Example 45, 3-Pyridin-4-yl-3-(3-pyrimidin-5-yl-phenyl)-3H-isoindol-1-ylamine trifluoroacetate] |
| 7.01 | COc1cncc(-c2cccc(C3(c4ccncc4)N=C(N)c4ccccc43)c2)c1 (stereo not shown) [Example 46, 3-[3-(5-Methoxy-pyridin-3-yl)-phenyl]-3-pyridin-4-yl-3H-isoindol-1-ylamine trifluoroacetate] |
| 6.74 | NC1=NC(c2ccc(OC(F)(F)F)cc2)(c2cccc(-c3cncnc3)c2)c2ccccc21 (stereo not shown) [Example 57, 1-(3-Pyrimidin-5-ylphenyl)-1-[4-(trifluoromethoxy)phenyl]-1H-isoindol-3-amine 0.25 acetate] |
| 6.15 | N#Cc1ccc(C2(c3cccc(-c4cncnc4)c3)N=C(N)c3ccccc32)cc1 (stereo not shown) [Example 58, 4-[3-Amino-1-(3-pyrimidin-5-ylphenyl)-1H-isoindol-1-yl]benzonitrile 0.25 acetate] |
| 6.24 | NC1=NC(c2ccc(C(F)(F)F)cc2)(c2cccc(-c3cncnc3)c2)c2ccccc21 (stereo not shown) [Example 60, 1-(3-Pyrimidin-5-ylphenyl)-1-[4-(trifluoromethyl)phenyl]1H-isoindol-3-amine 0.25 acetate] |
| 7.04 | NC1=NC(c2ccncc2)(c2cccc(-c3cncc(F)c3)c2)c2ccccc21 (stereo not shown) [Example 67, 1-[3-(5-Fluoropyridin-3-yl)phenyl]-1-pyridin-4-yl-1H-isoindol-3-amine 0.75 acetate] |
| 7.09 | NC1=NC(c2ccncc2)(c2ccc(F)c(-c3cncnc3)c2)c2ccccc21 (stereo not shown) [Example 68, 1-(4-Fluoro-3-pyrimidin-5-ylphenyl)-1-pyridin-4-yl-1H-isoindol-3-amine 0.5 acetate] |
| 6.72 | NC1=NC(c2cccc(-c3cncc(F)c3)c2)(c2ccncc2F)c2ccccc21 (stereo not shown) [Example 71, 1-(3-Fluoropyridin-4-yl)-1-[3-(5-fluoropyridin-3-yl)phenyl]-1H-isoindol-3-amine 0.5 acetate] |
| 6.60 | NC1=NC(c2cccc(-c3cncnc3)c2)(c2ccncc2F)c2ccccc21 (stereo not shown) [Example 72, 1-(3-Fluoropyridin-4-yl)-1-(3-pyrimidin-5-ylphenyl)-1H-isoindol-3-amine 1.25 acetate] |
| 6.89 | NC1=NC(c2cccc(-c3cccnc3F)c2)(c2ccncc2F)c2ccccc21 (stereo not shown) [Example 73, 1-(3-Fluoropyridin-4-yl)-1-[3-(2-fluoropyridin-3-yl)phenyl]-1H-isoindol-3-amine 1.25 acetate] |
| 6.82 | NC1=NC(c2ccc(F)c(-c3cncnc3)c2)(c2ccncc2F)c2ccccc21 (stereo not shown) [Example 74, 1-(3-Fluoropyridin-4-yl)-1-(4-fluoro-3-pyrimidin-5-ylphenyl)-1H-isoindol-3-amine 1.25 acetate] |
| 6.55 | NC1=NC(c2ccc(F)c(-c3cncc(F)c3)c2)(c2ccncc2F)c2ccccc21 (stereo not shown) [Example 75, 1-[4-Fluoro-3-(5-fluoropyridin-3-yl)phenyl]-1-(3-fluoropyridin-4-yl)-1H-isoindol-3-amine 1.5 acetate] |
| 7.00 | NC1=NC(c2ccc(F)c(-c3cccnc3F)c2)(c2ccncc2F)c2ccccc21 (stereo not shown) [Example 76, 1-[4-Fluoro-3-(2-fluoropyridin-3-yl)phenyl]-1-(3-fluoropyridin-4-yl)-1H-isoindol-3-amine 1.5 acetate] |
| 6.82 | N#Cc1cncc(-c2cccc(C3(c4ccncc4)N=C(N)c4ccccc43)c2)c1 (stereo not shown) [Example 77, 5-[3-(3-Amino-1-pyridin-4-yl-1H-isoindol-1-yl)phenyl]nicotinonitrile acetate] |
| 7.03 | NC1=NC(c2ccncc2)(c2cccc(-c3cncnc3)c2)c2cc(F)ccc21 (stereo not shown) [Example 84, 6-Fluoro-1-pyridin-4-yl-1-(3-pyrimidin-5-ylphenyl)-1H-isoindol-3-amine] |
| 6.57 | NC1=NC(c2cccc(-c3cncnc3)c2)(C2CC2)c2ccccc21 (stereo not shown) [Example 92, 1-Cyclopropyl-1-(3-pyrimidin-5-ylphenyl)-1H-isoindol-3-amine acetate] |
